Measurements reported in ChEMBL document CHEMBL1157539, “Thousands of chemical starting points for antimalarial lead identification” (Nature, 2010).

The compounds below were run on Plasmodium falciparum (assay: GSK_TCMDC: Inhibition of Plasmodium falciparum 3D7 in whole erythrocytes, using parasite LDH activity as an index of growth.). Conditions: Plasmodium falciparum, 3D7.
Format: functional, organism-based

| SMILES | XC50 [nM] |
| --- | --- |
| CCN(CC)CCN(Cc1ccc(-c2ccc(C(F)(F)F)cc2)cc1)C(=O)Cn1c(CCc2cccc(F)c2F)nc(=O)c2ccc(F)cc21 | 360 |
| CO/C(=C\C=C\c1cc2cc(Cl)c(Cl)cc2[nH]1)C(=O)NCCCNCCN(C)c1ccccc1 | 784 |
| O=C(Nc1ccc(OC2CCN(Cc3ccc(F)cc3)C2)c(Cl)c1)c1ccccc1 (stereo not drawn) | 787 |
| Oc1ccccc1CN1CCC2(CCCN(Cc3ccccc3F)C2)C1 (stereo not drawn) | 679 |
| Cc1cc(CN2CCC(Nc3ncc(-c4ccsc4)c4nc(C(F)(F)F)ccc34)CC2)no1 | 1100 |
| O=C(Nc1ccc(F)c([N+](=O)[O-])c1)Nc1cc(C(F)(F)F)ccc1Cl | 861 |
| CN1CCC(N2CCN(Cc3cccc(-c4ccc(-c5nc6ccccc6[nH]5)cc4)c3)CC2)CC1 | 156 |
| Cn1nc(-c2cccc(CNCc3ccccc3)c2)c2cnc(NC3CCCC3)nc21 | 1260 |
| COc1ccc(-c2cnc3[nH]cc(-c4ccc(C(=O)O)c(C)c4)c3c2)cn1 | 311 |
| COc1ccc(C2CC(c3cccs3)=NN2C(=O)c2ccco2)cc1OC (stereo not drawn) | 172 |
| CC(C)(C)C(=O)Nc1ccc(N2CCN(C(c3ccccc3)c3ccccc3)CC2)c(Cl)c1 | 662 |
| CN1CC=C(c2csc3ccc(NC(=O)Nc4ccc(-c5ccncc5)c5ccccc45)cc23)CC1 | 804 |
| CN(C)CCOc1cc(NC(=O)Nc2ccc(-c3ccncc3)c3ccccc23)ccc1I | 777 |
| O=C(CCCCCNC(=O)c1ccc(O)c(-c2cccc(C(F)(F)F)c2)c1)NCCN1CCCCC1 | 888 |
| CC(C)CNCc1cccc(-c2cccc(CN(CCCN3CCN(C)CC3)C(=O)NC3CCCCC3)c2)c1 | 761 |
| CN1CCN(CC(=O)Nc2ccc(-c3cccc(-c4nc5cc(C(F)(F)F)ccc5[nH]4)c3)cc2)CC1 | 399 |
| Cc1cccc2nc(-c3ccc(-c4cccc(NC(=O)c5cnccc5C(F)(F)F)c4)cc3)[nH]c12 | 998 |
| CC(Cc1ccc(OC2CCCCC2)cc1)NCC(O)c1cccc(Cl)c1 (stereo not drawn) | 138 |
| O=C(c1ccc(Cl)cc1)C1CCCN(C2CCN(CCc3ccccc3)CC2)C1 (stereo not drawn) | 1450 |
| CC(C)c1ccc2[nH]c(C(=O)NC3CCC(N4CCCc5ccc(C#N)cc5C4)CC3)cc2c1 (stereo not drawn) | 1090 |
| CCn1c(C)c(C)c2cc(C(=O)Nc3ccon3)ccc21 | 732 |
| O=C(NCCCCN1CCC(c2ccc3c(c2OCc2ccncc2)CCCC3)CC1)c1ccc(-c2ccc(C(F)(F)F)cc2)cc1 | 168 |
| Cc1c(C)n(Cc2ccccc2)c2ncnc(OC3CCN(CC(=O)NCC4CC4)CC3)c12 | 1120 |
| CCCCCCCCNCC(O)c1cc(-c2ccc(Cl)cc2)nc2cc(C)ccc12 (stereo not drawn) | 82.3 |
| CCc1ccc(S(=O)(=O)Nc2ccc(CCN3CCC(N4CCCCC4)CC3)cc2)cc1 | 988 |

| SMILES | XC50 [nM] |
| --- | --- |
| Cc1cc(N2CCN(CC3CCCCC3)CC2)nc(Nc2ccc(Br)cc2)n1 | 1090 |
| O=C(NC1CC1)c1cnc(N2CCC(Oc3ccc(Cl)cc3)CC2)c(Cl)c1 | 1090 |
| NC(=O)Nc1ccc2cn[nH]c2c1 | 205 |
| COc1cc(F)c2ncc(Cl)c(C(O)CN3CCC(NC(=O)c4ccc5c(c4)NC(=O)CS5)CC3)c2c1 (stereo not drawn) | 680 |
| CCCCNCc1ccc(-c2nc(CN(CCCN3CCN(C)CC3)C(=O)Nc3cccc(Cl)c3)cs2)cc1 | 967 |
| COc1cc2c(cc1S(=O)(=O)c1ccc(COc3ccc(C(F)(F)F)cc3)cc1)CNCC2 | 746 |
| O=C1C(C2CCC(c3ccc(Cl)cc3)CC2)=C2OCC3COC2(O3)c2ccccc21 (stereo not drawn) | 39 |
| OC(CNCCCCCCNCC(O)c1ccc(Cl)c(Cl)c1)c1ccc(Cl)c(Cl)c1 (stereo not drawn) | 915 |
| COc1c(C2CCN(CCCCNC(=O)c3ccc(-c4ccc(Cl)cc4)cc3)CC2)ccc2c1C(C)(C)CCC2(C)C | 777 |
| CS(=O)(=O)c1ccc(CNCc2ccc(-c3ccc(-c4nc5cc(C(F)(F)F)ccc5[nH]4)cc3)cc2)cc1 | 706 |
| CN(C)C(=O)C(CC(=O)NCc1ccccc1Cl)N(C)C.CN(C)C(=O)CC(C(=O)NCc1ccccc1Cl)N(C)C (stereo not drawn) | 896 |
| c1ccc2[nH]c(Nc3ccc(Nc4nc5ccccc5[nH]4)cc3)nc2c1 | 783 |
| c1ccc(Oc2ccc(Nc3ccnc4cc(-c5ccc(CNCCN6CCOCC6)o5)ccc34)cc2)cc1 | 439 |
| O=S(=O)(NCCN1CCCC1)c1ccc(-c2ccccc2CNC2Cc3ccccc3C2)cc1 | 847 |
| c1ccc2[nH]c(-c3ccc(-c4ccc(CN5CCN(c6ccncc6)CC5)cc4)s3)nc2c1 | 202 |
| Cc1cc(N[C@@H](CC(C)C)C(=O)NCc2cccs2)nc(Nc2ccccc2)n1 | 1130 |
| CCC(COCc1ccc(Cl)cc1)N(C)CCN(C)C(CC)COCc1ccc(Cl)cc1 (stereo not drawn) | 1060 |
| COc1ccc2nccc([C@@H](O)CN3CCC(NCc4cnc5snnc5c4)C(F)C3)c2c1 (stereo partly drawn) | 1350 |
| Cc1noc(C)c1-c1cccc(CNCc2ccc(-c3ccc(-c4nc5cc(F)ccc5[nH]4)s3)cc2)c1 | 423 |
| O=C(/C=C/c1ccc(Cl)c(Cl)c1)NCC1CCN(Cc2ccc(O)cc2)CC1 | 694 |
| COc1ccc(-c2nc(NC(=O)CS(=O)(=O)c3ccc(C)cc3)sc2C)cc1 | 401 |
| COc1ccc(NC(=O)C2CCN(CCCCCNC(=O)/C=C/c3ccc(Cl)c(Cl)c3)CC2)cc1 | 828 |
| NC1=NC(c2ccccc2)(c2ccccc2)C(=O)N1Cc1ccc(-c2cccnc2)cc1 | 704 |
| O=C(Cn1cc(C(F)(F)F)cc(Cl)c1=O)N1CCN(S(=O)(=O)c2ccc(Cl)cc2)CC1 | 897 |
| CN(C)CCOc1cc(NC(=O)Nc2ccc(-c3ccncc3)c(Cl)c2)ccc1I | 143 |

| SMILES | XC50 [nM] |
| --- | --- |
| CCCCCCNC(=O)C1Cc2c([nH]c3ccc(C)cc23)C2(CCN(CCc3ccccc3)CC2)N1 (stereo not drawn) | 1270 |
| COc1ccc(-c2ccccc2CNC2Cc3ccccc3C2)cc1S(=O)(=O)NCCN1CCCC1 | 870 |
| O=C(Nc1cccc(CN2CCCN(Cc3cccc(F)c3)CC2)c1)c1ccc(Cl)c(Cl)c1 | 923 |
| O=C(N[C@@H](Cc1ccccc1)C(=O)NC1CCCc2ccccc21)c1ccc(O)c(-c2ccc(Cl)c(Cl)c2)c1 (stereo partly drawn) | 209 |
| O=c1cc(NCCCNCc2ccc3c(c2)OC(F)(F)O3)[nH]c2ccccc12 | 770 |
| Nc1cc(C(F)(F)F)ccc1Cl | 736 |
| O=C(Nc1ccc(Cl)cc1)c1ccc(CN2CCCN(Cc3ccccc3)CC2)cc1 | 753 |
| N#Cc1cccc(C(=O)Nc2cccc(-c3cccc(CN4CCNCC4)c3)c2)c1 | 947 |
| O=C(Nc1ccc(Cl)cc1)N[C@H]1CCN(CCCCCNC(=O)C2CC2c2ccc(Cl)c(Cl)c2)C1 (stereo partly drawn) | 874 |
| CC1CN(c2cnn(Cc3cccc(NC(=O)Nc4ccc(-c5ccccc5)cc4)c3)c(=O)c2Cl)CC(C)N1 (stereo not drawn) | 340 |
| CCc1c(CCNCC/C=C/CCNCCc2ccc(OC)c(OC)c2CC)ccc(OC)c1OC | 771 |
| COc1ccc(NC(=O)[C@H](C)Nc2cc(C)nc(NCC3CCCCC3)n2)cc1 | 1280 |
| Cc1ccc(NC(=O)Nc2ccc(Br)cc2)cc1OCCN(C)C | 975 |
| CN1CCN(Cc2ccc(-c3cccc(-c4nc5ccccc5[nH]4)c3)cc2)CC1 | 1390 |
| CN(c1cc(NC(=O)c2ccc(F)cc2)ccn1)C1CCN(Cc2ccc(C#N)cc2)CC1 | 1510 |
| O=C(Nc1cccc(CCNCc2ccccc2)c1)Nc1cccc2ccccc12 | 729 |
| Cc1cc(-c2nc3ccc(C(=O)NCc4ccccc4)cc3n2C2CCN(C(=O)c3ccc(-c4ccccc4)cc3)CC2)ccn1 | 898 |
| CCOc1cc(CNCCCCCCNCc2cc(OCC)c(OCC)c3ccccc23)c2ccccc2c1OCC | 284 |
| CCNc1cc(C)nc(Nc2ccc(NS(=O)(=O)c3ccccc3)cc2)n1 | 791 |
| c1ccc(CCNCc2ccc(-c3cccc(-c4nc5ccccc5[nH]4)c3)cc2)nc1 | 619 |
| O=C(c1ccc(Cl)cc1)N1CCCC(C(=O)N(Cc2nnc(-c3ccccc3Cl)o2)C2CC2)C1 (stereo not drawn) | 227 |
| Nc1ccc(-c2cc(Cl)cc(Cl)c2)cc1-c1cc2ccccc2[nH]1 | 695 |
| CCOC(=O)c1c(C)n(-c2ccc(Cl)cc2)c2ccc(OC(=O)C=Cc3ccccc3)cc12 | 698 |
| COc1ccc(-c2cnc3ccc(NCCCO)nn23)cc1OC | 672 |
| COc1cccc2c(NCCNc3ccnc4c(OC)cccc34)ccnc12 | 267 |

| SMILES | XC50 [nM] |
| --- | --- |
| Cc1ccc2[nH]c(C3CCCNC3)c(-c3ccncc3)c2c1 (stereo not drawn) | 1230 |
| CCCCCC(C)c1cc(O)c2c(c1)OC(C)(C)C=C2C1=CCN(Cc2ccccc2)CC1 (stereo not drawn) | 780 |
| Cc1[nH]c2cc(Cl)ccc2c1C1=CCN(CCCCC2(C)C(=O)Nc3ccccc32)CC1 (stereo not drawn) | 333 |
| CC(=O)Nc1cccc(C(=O)Nc2ccc(-c3ccc(-c4nc5cccc(C)c5[nH]4)s3)cc2)c1 | 1740 |
| Cc1ccc(CNC(=O)c2cnc(N3CCN(c4ccncc4)CC3)c(Cl)c2)cc1 | 1290 |
| Cc1cc(N2CCCCC2)nc2ccc(NC(=O)c3cncc(Br)c3)cc12 | 718 |
| CC[C@H](C)CNC(=O)c1cncc(-c2cccc(CNCCCc3ccccc3)c2)c1 | 1170 |
| O=C(NC1CCN(Cc2ccccc2)CC1)c1cccc(-c2nc3ccc(Cl)cc3[nH]2)c1 | 864 |
| CCOc1ccc2[nH]c(-c3ccccc3)cc(=NN=Cc3ccncc3)c2c1 | 149 |
| C=CCOC(=O)N1CCC(CNCc2cccc(-c3cccc(-c4nc5ccccc5[nH]4)c3)c2)C1 (stereo not drawn) | 340 |
| CN1CCC(N2CCN(Cc3ccc(-c4cccc(-c5nc6ccccc6[nH]5)c4)cc3)CC2)CC1 | 145 |
| COc1ccc(-n2ccnc2SCC(=O)Nc2cccc(C(F)(F)F)c2)c(OC)c1 | 220 |
| CCCCn1c(Sc2ccc(C#N)c([N+](=O)[O-])c2)nnc1-c1cccc(Cl)c1 | 762 |
| CSc1nc2cc3c(cc2n1C(=O)c1ccc(C)cc1)OCCO3 | 166 |
| CCCCCCn1ccc2c3c(N)nc(N)nc3ccc21 | 149 |
| CC(C)(C)OC(=O)NCC(=O)N(Cc1ccccc1)Cc1ccccc1 | 124 |
| Oc1ccccc1-c1nc2cccnc2n1CCc1cccc(C(F)(F)F)c1 | 1270 |
| CN(Cc1ccccc1)C1CCN(CCc2c[nH]c3ccc(F)cc23)CC1 | 597 |
| Cn1cnc2c(Nc3ccncc3)nc(-c3ccc(OC(F)(F)F)cc3)nc21 | 1100 |
| OC(CNC1CCCCC1)Cn1c2ccc(I)cc2c2cc(I)ccc21 (stereo not drawn) | 337 |
| CC(=O)C1(c2ccccc2)CCN(CCC2(c3ccc(Cl)c(Cl)c3)CN(C(=O)c3cccc(Cl)c3)CCO2)CC1 (stereo not drawn) | 854 |
| CN(C)Cc1ccc(-c2ccc3c(Nc4ccc(Oc5ccccn5)cc4)ccnc3c2)o1 | 159 |
| Cc1cc(N)c2cc(NC(=O)/C=C/c3ccccc3Cl)ccc2n1 | 405 |
